Legend:
Type in all cases: functional
Botrytis cinerea [1] = experiment: Fungicidal activity against anilinopyrimidine-sensitive Botryotinia fuckeliana KU-59 isolated from grape plant assessed as inhibition of mycelial growth at 1 mg/l after 4 days; conditions: KU-59, 96 h, read-out: GI
Botrytis cinerea [2] = experiment: Fungicidal activity against anilinopyrimidine-resistant Botryotinia fuckeliana CH15.93 isolated from grape plant assessed as inhibition of mycelial growth at 0.3 mg/l after 4 days; conditions: CH15.93, 96 h, read-out: GI
Botrytis cinerea [3] = experiment: Fungicidal activity against anilinopyrimidine-resistant Botryotinia fuckeliana CH164.94 isolated from grape plant assessed as inhibition of mycelial growth at 0.1 mg/l after 4 days; conditions: CH164.94, 96 h, read-out: GI
Botrytis cinerea [4] = experiment: Fungicidal activity against anilinopyrimidine-sensitive Botryotinia fuckeliana KU-59 infected in strawberry fruit assessed as inhibition of mycelial growth at 200 mg/l treated 2-3 hr before challenge measured after 5 days; conditions: read-out: GI
Botrytis cinerea [5] = experiment: Fungicidal activity against anilinopyrimidine-resistant Botryotinia fuckeliana CH164.94 isolated from grape plant assessed as inhibition of mycelial growth at 0.3 mg/l after 4 days; conditions: CH164.94, 96 h, read-out: GI
Botrytis cinerea [6] = experiment: Fungicidal activity against anilinopyrimidine-resistant Botryotinia fuckeliana CH164.94 isolated from grape plant assessed as inhibition of mycelial growth at 30 mg/l after 4 days; conditions: CH164.94, 96 h, read-out: GI
Botrytis cinerea [7] = experiment: Fungicidal activity against anilinopyrimidine-sensitive Botryotinia fuckeliana KU-59 isolated from grape plant assessed as inhibition of mycelial growth at 10 mg/l after 4 days; conditions: KU-59, 96 h, read-out: GI
Botrytis cinerea [8] = experiment: Fungicidal activity against anilinopyrimidine-resistant Botryotinia fuckeliana CH12.92 isolated from grape plant assessed as inhibition of mycelial growth at 10 mg/l after 4 days; conditions: CH12.92, 96 h, read-out: GI
Botrytis cinerea [9] = experiment: Fungicidal activity against anilinopyrimidine-resistant Botryotinia fuckeliana CH15.93 isolated from grape plant assessed as inhibition of mycelial growth at 1 mg/l after 4 days; conditions: CH15.93, 96 h, read-out: GI
Botrytis cinerea [10] = experiment: Fungicidal activity against anilinopyrimidine-resistant Botryotinia fuckeliana CH164.94 infected in strawberry fruit assessed as inhibition of mycelial growth at 200 mg/l treated 2-3 hr before challenge measured after 5 days; conditions: read-out: GI
Botrytis cinerea [11] = experiment: Fungicidal activity against anilinopyrimidine-sensitive Botryotinia fuckeliana KU-59 isolated from grape plant assessed as inhibition of mycelial growth at 100 mg/l after 4 days; conditions: KU-59, 96 h, read-out: GI
Botrytis cinerea [12] = experiment: Fungicidal activity against anilinopyrimidine-resistant Botryotinia fuckeliana CH12.92 isolated from grape plant assessed as inhibition of mycelial growth at 0.1 mg/l after 4 days; conditions: CH12.92, 96 h, read-out: GI
Botrytis cinerea [13] = experiment: Fungicidal activity against anilinopyrimidine-resistant Botryotinia fuckeliana CH15.93 infected in strawberry fruit assessed as inhibition of mycelial growth at 100 mg/l treated 2-3 hr before challenge measured after 5 days; conditions: read-out: GI
Botrytis cinerea [14] = experiment: Fungicidal activity against anilinopyrimidine-resistant Botryotinia fuckeliana CH164.94 isolated from grape plant assessed as inhibition of mycelial growth at 1 mg/l after 4 days; conditions: CH164.94, 96 h, read-out: GI
Botrytis cinerea [15] = experiment: Fungicidal activity against anilinopyrimidine-sensitive Botryotinia fuckeliana KU-59 infected in strawberry fruit assessed as inhibition of mycelial growth at 50 mg/l treated 2-3 hr before challenge measured after 5 days; conditions: read-out: GI
Botrytis cinerea [16] = experiment: Fungicidal activity against anilinopyrimidine-sensitive Botryotinia fuckeliana KU-01 infected in strawberry fruit assessed as inhibition of mycelial growth at 100 mg/l treated 2-3 hr before challenge measured after 5 days; conditions: read-out: GI
Botrytis cinerea [17] = experiment: Fungicidal activity against anilinopyrimidine-resistant Botryotinia fuckeliana CH164.94 isolated from grape plant assessed as inhibition of mycelial growth at 10 mg/l after 4 days; conditions: CH164.94, 96 h, read-out: GI
Botrytis cinerea [18] = experiment: Fungicidal activity against anilinopyrimidine-resistant Botryotinia fuckeliana CH12.92 infected in strawberry fruit assessed as inhibition of mycelial growth at 50 mg/l treated 2-3 hr before challenge measured after 5 days; conditions: read-out: GI
Botrytis cinerea [19] = experiment: Fungicidal activity against anilinopyrimidine-resistant Botryotinia fuckeliana CH15.93 isolated from grape plant assessed as inhibition of mycelial growth at 30 mg/l after 4 days; conditions: CH15.93, 96 h, read-out: GI
Botrytis cinerea [20] = experiment: Fungicidal activity against anilinopyrimidine-resistant Botryotinia fuckeliana CH12.92 isolated from grape plant assessed as inhibition of mycelial growth at 100 mg/l after 4 days; conditions: CH12.92, 96 h, read-out: GI
Botrytis cinerea [21] = experiment: Fungicidal activity against anilinopyrimidine-resistant Botryotinia fuckeliana CH12.92 infected in strawberry fruit assessed as inhibition of mycelial growth at 200 mg/l treated 2-3 hr before challenge measured after 5 days; conditions: read-out: GI
Botrytis cinerea [22] = experiment: Fungicidal activity against anilinopyrimidine-resistant Botryotinia fuckeliana CH15.93 isolated from grape plant assessed as inhibition of mycelial growth at 10 mg/l after 4 days; conditions: CH15.93, 96 h, read-out: GI
Botrytis cinerea [23] = experiment: Fungicidal activity against anilinopyrimidine-sensitive Botryotinia fuckeliana KU-59 isolated from grape plant assessed as inhibition of mycelial growth at 0.1 mg/l after 4 days; conditions: KU-59, 96 h, read-out: GI
Botrytis cinerea [24] = experiment: Fungicidal activity against anilinopyrimidine-resistant Botryotinia fuckeliana CH164.94 infected in strawberry fruit assessed as inhibition of mycelial growth at 50 mg/l treated 2-3 hr before challenge measured after 5 days; conditions: read-out: GI
Botrytis cinerea [25] = experiment: Fungicidal activity against anilinopyrimidine-resistant Botryotinia fuckeliana CH15.93 isolated from grape plant assessed as inhibition of mycelial growth at 100 mg/l after 4 days; conditions: CH15.93, 96 h, read-out: GI

CC#Cc1cc(C)nc(Nc2ccccc2)n1 [MEPANIPYRIM]
inhibition of growth at 1 µg/mL (Botrytis cinerea [1]): 100%
inhibition of growth at 0.3 µg/mL (Botrytis cinerea [2]): 0%
inhibition of growth at 0.1 µg/mL (Botrytis cinerea [3]): 0%
inhibition of growth at 200 µg/mL (Botrytis cinerea [4]): 100%
inhibition of growth at 0.3 µg/mL (Botrytis cinerea [5]): 0%
inhibition of growth at 30 µg/mL (Botrytis cinerea [6]): 66.2%
inhibition of growth at 10 µg/mL (Botrytis cinerea [7]): 100%
inhibition of growth at 10 µg/mL (Botrytis cinerea [8]): 65.7%
inhibition of growth at 1 µg/mL (Botrytis cinerea [9]): 34.9%
inhibition of growth at 200 µg/mL (Botrytis cinerea [10]): 0%
inhibition of growth at 100 µg/mL (Botrytis cinerea [11]): 100%
inhibition of growth at 0.1 µg/mL (Botrytis cinerea [12]): 0%
inhibition of growth at 100 µg/mL (Botrytis cinerea [13]): 0%
inhibition of growth at 1 µg/mL (Botrytis cinerea [14]): 38.3%
inhibition of growth at 50 µg/mL (Botrytis cinerea [15]): 100%
inhibition of growth at 100 µg/mL (Botrytis cinerea [16]): 100%
inhibition of growth at 10 µg/mL (Botrytis cinerea [17]): 67.1%
inhibition of growth at 50 µg/mL (Botrytis cinerea [18]): 0%
inhibition of growth at 30 µg/mL (Botrytis cinerea [19]): 74.1%
inhibition of growth at 100 µg/mL (Botrytis cinerea [20]): 70.4%
inhibition of growth at 200 µg/mL (Botrytis cinerea [21]): 0%
inhibition of growth at 10 µg/mL (Botrytis cinerea [22]): 72.6%
inhibition of growth at 0.1 µg/mL (Botrytis cinerea [23]): 86.4%
inhibition of growth at 50 µg/mL (Botrytis cinerea [24]): 0%
inhibition of growth at 100 µg/mL (Botrytis cinerea [25]): 75.4%
